Assay results: patent US9448244B2, “Compound, and method for measuring iron concentration by using novel compound as chelate color former” (WAKO PURE CHEMICAL INDUSTRIES, LTD., priority 2012, dated 2016)
“Also recorded” adds a separate entry of the source.

Columns and labels:
[1] = Absorbance measurement of iron chelate color development, first reagent solution pH 8.0 (Example 3 / Comparative Example 1); type: physicochemical; details: aqueous iron solution 200 μg/dL; R-1 tricine pH 8.0, R-2 tricine pH 8.0; color former 0.23 mM; 37° C.
Procedure: (§1) [Preparation of Reagent Solution]
(§2) (R-1) First Reagent Solution:
A 100 mM tricine buffer solution (pH 8.0) containing 0.5% (w/v) polyvinylpyrrolidone (K-90) (produced by Wako Pure Chemical Industries, Ltd.) was used as the first reagent solution.
(§3) (R-2) Second Reagent Solution:
A 100 mM tricine buffer solution (pH 8.0) containing 1 mM 4S-SPF synthesized in Example 1 or 1 mM 2S-4CPF synthesized in Example 2 was used as the second reagent solution.
Aqueous ferrous ammonium sulfate solution (containing 200 μg/dL iron) was prepared and used as a sample.
(§4) [Measurement of Absorbance]
For the above-described sample, the measurement of absorbance was carried out using the reagent solution described above, and using JEOL BM6050 automatic analyzer (manufactured by JEOL Co., Ltd.) by the following measurement conditions. In addition, when the measurement of reagent blank, measurement was carried out in the same manner using physiological saline instead of the sample.
Analysis method/Reaction time: [EPA] [10]
Measurement point: [44], [47]-[95], [98].
Wavelength (secondary/dominant): [694] [596]
Sample volume: 8 μL (2 times dilution at measurement)
Measurement temperature: 37° C.
It should be noted that the concentration of 4S-SPF or 2S-4CPF at the time of measurement was 0.23 mM.
A 100 mM tricine buffer solution (pH 8.0) containing 0.5% (w/v) polyvinylpyrrolidone (K-90) was used as the first reagent solution.
A 100 mM tricine buffer solution (pH 8.0) containing 1 mM CPF was used as the second reagent solution. The CPF was synthesized according to the method described in the Mitsuru Hoshino et al., Yakugaku Zassi, 2011, vol. 131, No. 7, p. 1095-1101 (Non-Patent Literature 1), and used.
Aqueous ferrous ammonium sulfate solution (containing 200 μg/dL iron) prepared and used as a sample.
For the above-described sample, the measurement of absorbance was carried out using the reagent solution described above and using JEOL BM6050 automatic analyzer (manufactured by JEOL Co., Ltd.) by the same measurement conditions as performed in Example 3. […]

[2] = Absorbance measurement of iron chelate color development, first reagent solution pH 3.2 (Example 4 / Comparative Example 2); type: physicochemical; details: aqueous iron solution 200 μg/dL; R-1 glycine pH 3.2 (condition of serum iron measurement), R-2 tricine pH 9.0; color former 0.23 mM
Procedure: as §1, §2
A 10 mM glycine buffer solution (pH 3.2) containing 0.5% (w/v) polyvinylpyrrolidone (K-90) (produced by Wako Pure Chemical Industries, Ltd.) was used as the first reagent solution.
as §3
A 100 mM tricine buffer solution (pH 9.0) containing 1 mM 4S-SPF which was synthesized in Example 1 or 1 mM 2S-4CPF which was synthesized in Example 2 was used as the second reagent solution.
The sample used was same as used in Example 3.
as §4
For the above-described sample, the measurement of absorbance was carried out using the reagent solution described above and using JEOL BM6050 automatic analyzer (manufactured by JEOL Co., Ltd.) by the same measurement conditions as performed in Example 3.
It should be noted that, the concentration of 4S-SPF or 2S-4CPF at the time of measurement was 0.23 mM.
A 10 mM glycine buffer solution (pH 3.2) containing 0.5% (w/v) polyvinylpyrrolidone (K-90) was used as the first reagent solution.
A 100 mM tricine buffer solution (pH 9.0) containing 1 mM CPF was used as the second reagent solution. CPF was synthesized according to the method described in the Mitsuru Hoshino et al., Yakugaku Zassi, 2011, vol. 131, No. 7, p. 1095-1101 (Non-Patent Literature 1), and used.
The sample used was the same as used in Example 4.
For the above-described sample, the measurement of absorbance was carried out using the reagent solution described above and using JEOL BM6050 automatic analyzer (manufactured by JEOL Co., Ltd.) by the same measurement conditions as performed in Example 4.
It should be noted that, the concentration of the CPF at the time of measurement was 0.23

Row | color fading after color development [1] | Compound | color fading after color development [2]
1 | color fading was not confirmed | O=C(O)c1ccc(-c2c3cc(O)c(=O)cc-3oc3cc(O)c(O)cc23)c(S(=O)(=O)O)c1 [2S-4CPF, 9-(4-carboxy-2-sulfophenyl)-2,3,7-trihydroxy-6-fluorone] | fading after color development was not observed
2 | color fading was not confirmed | O=c1cc2oc3cc(O)c(O)cc3c(-c3ccc(S(=O)(=O)O)cc3S(=O)(=O)O)c-2cc1O [4S-SPF, 9-(2,4-disulfophenyl)-2,3,7-trihydroxy-6-fluorone] | fading after color development was not observed

Row | Compound | color fading after color development [1] | color fading after color development [2]
3 | O=C(O)c1ccccc1-c1c2cc(O)c(=O)cc-2oc2cc(O)c(O)cc12 [CPF, 9-(2-carboxyphenyl)-2,3,7-trihydroxy-6-fluorone, reference compound] | color fading after color development was observed | color fading after color development was observed; also recorded: fading after color development was remarkable
